Test systems include HOP-18 NSCLC; XF 498 CNS; LXFL 529 NSCLC; M19-MEL melanoma; RXF-631 renal; DMS 273 small cell lung; DMS 114 small cell lung; MDA-MB-231 breast; MDA-N; P388 leukemia.
Assay in all cases: NCI tumour cell line growth inhibition, 48 h

Several values for one entry are separate records, joined by “and”; a condition that tells them apart may be missing. Identical values can stand only once.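 Interpolation was linear, between the two tested concentrations surrounding the appropriate level; five concentrations were tested over 48 hours in 96-well plates. GI50 = concentration required for 50% inhibition of growth. TGI denotes the concentration required for complete inhibition of growth.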

In the case of `O=C(O)CN(c1ccccc1)S(=O)(=O)c1ccc([N+](=O)[O-])cc1`, the TGI with HOP-18 NSCLC, in the assay with XF 498 CNS, in the assay on LXFL 529 NSCLC, in the assay on M19-MEL melanoma, in the assay on RXF-631 renal and in the assay on DMS 273 small cell lung was > 100 µM throughout.
`CCOc1ccccc1NC(=O)C(=O)Cc1nc2ccccc2s1`: the TGI with DMS 114 small cell lung, in the assay with HOP-18 NSCLC, in the assay on XF 498 CNS, in the assay with LXFL 529 NSCLC, with M19-MEL melanoma and in the assay with RXF-631 renal was > 100 µM throughout. Moreover, in the assay with DMS 273 small cell lung, the TGI is > 100 µM.
For `COC(=O)c1cccc2cccc(C(=O)Nc3ccc(Cl)cc3)c12`, the TGI in the assay with DMS 114 small cell lung, with HOP-18 NSCLC, with XF 498 CNS, in the assay on LXFL 529 NSCLC, in the assay on M19-MEL melanoma and in the assay with RXF-631 renal was > 100 µM throughout. The compound also showed a TGI with DMS 273 small cell lung of 22.2 µM.
Consider `[F][Sn]([F])([c]1ccccc1)[c]1ccccc1`, for which the GI50 was 2 µM with DMS 114 small cell lung; 2.08 µM in the assay on HOP-18 NSCLC; 1.99 µM in the assay with XF 498 CNS; 0.815 µM with LXFL 529 NSCLC; 2.35 µM with M19-MEL melanoma; 2.3 µM in the assay on RXF-631 renal. In addition, the GI50 in the assay with DMS 273 small cell lung was 2.17 µM. In addition, the TGI with DMS 114 small cell lung is 5.8 µM; with HOP-18 NSCLC it was 3.59 µM; with XF 498 CNS it was 3.45 µM; in the assay with LXFL 529 NSCLC, 2.08 µM; with M19-MEL melanoma, 6.2 µM; in the assay on RXF-631 renal, 6.01 µM. Besides, in the assay with DMS 273 small cell lung, the TGI stood at 5.26 µM.
On to `CC1=C(c2cc(C(=O)Nc3ccc(Cl)cc3)nc(=S)[nH]2)Sc2ccccc2N1`, for which the TGI with DMS 114 small cell lung, in the assay on HOP-18 NSCLC, in the assay with XF 498 CNS, with LXFL 529 NSCLC, with M19-MEL melanoma and with RXF-631 renal was > 100 µM throughout. Moreover, the TGI in the assay with DMS 273 small cell lung was > 100 µM.
Regarding `CCOC(=O)/C(=C/c1cccc(C#N)c1)N(CC)CC`, the TGI with DMS 114 small cell lung, in the assay on HOP-18 NSCLC, with XF 498 CNS, with LXFL 529 NSCLC, with M19-MEL melanoma and with RXF-631 renal was > 100 µM each time.
With `CC(C)(C)OC(=O)N1N=NC2C1C1CC(OCc3ccccc3)(OCc3ccccc3)C2O1` (stereo unspecified), the TGI was 40.6 µM with DMS 114 small cell lung; > 100 µM in the assay with HOP-18 NSCLC; 30.3 µM in the assay on XF 498 CNS; 35 µM in the assay with LXFL 529 NSCLC; > 100 µM in the assay on M19-MEL melanoma; > 100 µM in the assay with RXF-631 renal. Besides, in the assay with DMS 273 small cell lung, the TGI was > 100 µM.
Consider `CC1=C(C(=O)NNS(=O)(=O)c2ccc(C)cc2)CC(C(=O)NNS(=O)(=O)c2ccc(C)cc2)=C(C)N1`, for which the TGI in the assay on DMS 114 small cell lung, in the assay with HOP-18 NSCLC, with XF 498 CNS, with LXFL 529 NSCLC, in the assay on M19-MEL melanoma and with RXF-631 renal was > 100 µM throughout.
Turning to `O=C1C(=O)N(c2cc(Cl)ccc2Cl)C(=O)C(=O)C1c1nc2ccccc2o1`, the TGI in the assay with DMS 114 small cell lung, with HOP-18 NSCLC, in the assay with XF 498 CNS, in the assay with LXFL 529 NSCLC, in the assay on M19-MEL melanoma and in the assay on RXF-631 renal was > 100 µM throughout. Further, the TGI in the assay with DMS 273 small cell lung was > 100 µM.
`COc1cc(C(=O)N2CCc3c([nH]c4c([N+](=O)[O-])c(OC)ccc34)C2C)cc(OC)c1OC` (stereo unspecified): the TGI in the assay on DMS 114 small cell lung, in the assay with LXFL 529 NSCLC, in the assay on RXF-631 renal and in the assay with DMS 273 small cell lung was > 100 µM in each case.
For the compound `O=c1[nH]c(=O)n([C@H]2CCCO2)cc1F`, the results for the TGI in the assay with MDA-MB-231 breast, in the assay with MDA-N and in the assay on P388 leukemia were > 5000 µM, > 5000 µM and 565 µM, respectively. The GI50 in the assay on MDA-N is 357 µM.
`O=C(O)CSc1n[nH]c(Cc2ccccc2)n1`: the TGI with DMS 114 small cell lung, in the assay with HOP-18 NSCLC, in the assay on XF 498 CNS, in the assay with LXFL 529 NSCLC, with M19-MEL melanoma and in the assay on RXF-631 renal was > 100 µM throughout.
With `COc1cc(C(=O)C/C(CCC(=O)Nc2ccc(Cl)cc2Cl)=N/NC(=O)C(=O)NN)ccc1O`, the TGI in the assay with DMS 114 small cell lung, with HOP-18 NSCLC, in the assay with XF 498 CNS, with LXFL 529 NSCLC, in the assay with M19-MEL melanoma and with RXF-631 renal was > 100 µM throughout.
`CC1=C(C(=O)Nc2ccccc2)C(c2ccc(C3C(C(=O)Nc4ccccc4)=C(C)NC(C)=C3C(=O)Nc3ccccc3)cc2)C(C(=O)Nc2ccccc2)=C(C)N1`: the TGI amounted to 17.8 µM in the assay on DMS 114 small cell lung; 21.7 µM in the assay with HOP-18 NSCLC; 13.4 µM with MDA-MB-231 breast; 20.5 µM in the assay on XF 498 CNS; 5.34 µM with LXFL 529 NSCLC; 22 µM in the assay with M19-MEL melanoma. The TGI amounted to 14.5 µM with MDA-N and 7.24 µM with DMS 273 small cell lung.
In the case of `CCOc1ccccc1NC(=O)C(C#N)C1=C(Cl)C(=O)c2ccccc2C1=O` (stereo unspecified), the GI50 was 1.66 µM with DMS 114 small cell lung, 1.83 µM in the assay on XF 498 CNS, 0.303 µM in the assay on M19-MEL melanoma and 6.8 µM in the assay on RXF-631 renal. In addition, the TGI with DMS 114 small cell lung was 2.16 µM and 3.85 µM; with HOP-18 NSCLC it was 2.85 µM; in the assay on XF 498 CNS, 3.75 µM and 3.24 µM; with LXFL 529 NSCLC, 3.25 µM and 3.16 µM; in the assay with M19-MEL melanoma, 0.351 µM and 0.872 µM; in the assay on RXF-631 renal, 4.03 µM and 26.2 µM. For the same compound, in the assay with DMS 273 small cell lung, the TGI was 3.35 µM and 3.47 µM.

The values are drawn from PubChem BioAssay (NCI).
